Key:
[1] = molecular target: T1, human normal β-galactosidase (GP8) (Homo sapiens, UniProt P16278); assay: Galactosidase inhibitory activity, enzyme from culture supernatant, 4-methylumbelliferyl-β-D-galactopyranoside substrate; type: biochemical; parameters: made in house; host or cells: SV40-immortalized β-galactosidase knockout mouse skin fibroblasts; Enzyme source was the supernatant after 24 h in NH4Cl medium, dialyzed and concentrated; conditions: 30 minutes
T1 sequence (P16278 29-677): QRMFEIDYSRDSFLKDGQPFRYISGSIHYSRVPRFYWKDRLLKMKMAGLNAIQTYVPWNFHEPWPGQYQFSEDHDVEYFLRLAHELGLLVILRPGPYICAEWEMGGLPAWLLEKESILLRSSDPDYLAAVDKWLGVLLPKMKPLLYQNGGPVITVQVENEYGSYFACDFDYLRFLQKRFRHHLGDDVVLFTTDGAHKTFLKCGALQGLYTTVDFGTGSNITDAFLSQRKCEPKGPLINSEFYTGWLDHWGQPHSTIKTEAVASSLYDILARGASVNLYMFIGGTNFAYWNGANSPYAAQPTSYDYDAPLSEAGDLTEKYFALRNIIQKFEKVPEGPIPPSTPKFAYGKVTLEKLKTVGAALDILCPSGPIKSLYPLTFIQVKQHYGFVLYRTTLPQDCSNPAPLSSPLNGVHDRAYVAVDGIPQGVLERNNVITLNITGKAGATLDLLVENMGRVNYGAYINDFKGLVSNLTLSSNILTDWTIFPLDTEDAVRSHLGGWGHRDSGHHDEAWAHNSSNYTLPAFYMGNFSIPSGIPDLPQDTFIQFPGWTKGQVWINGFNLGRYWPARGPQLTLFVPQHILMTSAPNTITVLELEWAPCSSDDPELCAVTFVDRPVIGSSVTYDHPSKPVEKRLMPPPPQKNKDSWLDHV
Protocol: Knockout mouse skin fibroblast introduced with a human normal β-galactosidase (GP8) cDNA (Biochem. Biophys. Res. Commun., 157(1), 238-244, 1988) and immortalized with an SV40 viral gene were cultured at 37° C. in an atmosphere of 5% CO2, using Dulbecco's modified Eagle's medium (to be referred to as “DMEM” hereinafter: manufactured by Gibco) containing 10% fetal calf serum (to be referred to as “FCS” hereinafter), and when the cells became 80% confluent, the medium was exchanged with FCS-free DMEM containing 10 mM of NH4Cl. After culturing for 24 hours, the supernatant was recovered and dialyzed against 10 mM phosphate buffer (pH=6.5) for 4 hours. Thereafter, the mixture was concentrated using VIVAPORE-20 (manufactured by Vivapore) and used as the enzyme source. Using 4-methylumbelliferyl-β-D-galactopyranoside as the fluorescent substrate, the enzyme activity during 30 minutes was measured in the presence or absence of the substance to be tested (Table 1). Final concentration of the substance 18 of the present invention was adjusted to 0.05, 0.125, 0.25, 0.5, 1, 2.5 or 5 μM.

[2] = Safety observation during 1 week oral administration test in mice; conditions: about 1.4 mg per day orally
Protocol: That is, tap water containing 1 mM (about 0.28 mg/ml) of the substance 18 of the present invention was continuously administered for 1 week as drinking water to recombinant mice (3 month-old) prepared by transferring a human mutant β-galactosidase gene R201C into β-galactosidase deficient knockout mice. One week thereafter, the mice were sacrificed to excise the cerebrum, the cerebellum, the heart, the lungs, the liver, the spleen, the kidney, a muscle (femoral muscle) and plasma. Also, tail tissues were used for the purpose of verifying changes in the β-galactosidase activity in the same individual before and after the administration. Each organ was crushed under ice-cooling using a homogenizer, and then the suspension of crushed cells was centrifuged at 8,000×g for 30 minutes. Thereafter, the supernatant fraction was recovered and used as an enzyme solution. The amount of protein in this enzyme solution was measured by the Bradford method, and the β-galactosidase activity was measured. With regard to the measurement of β-galactosidase activity, the enzyme activity during 30 minutes was measured at 37° C. using 4-methylumbelliferyl-β-D-galactopyranoside as the fluorogenic substrate. […] Three animals were used in each group to calculate the mean value.

## CCCCCCCCN[C@@H]1C=C(CO)[C@H](O)C(O)[C@@H]1O (stereo partly drawn) [Substance 18, N-octyl-5a-carba-α-L-arabino-hexo-5(5a)-enopyranosylamine]
[1]; 0.050 umol/L substance
  activity at 0.05 µM: 77%
[1]; 0.125 umol/L substance
  activity at 0.125 µM: 59.5%
[1]; 0.250 umol/L substance
  activity at 0.25 µM: 43.4%
[1]; 0.500 umol/L substance
  activity at 0.5 µM: 35.7%
[1]; 1.000 umol/L substance
  activity at 1 µM: 36%
[1]; 2.500 umol/L substance
  activity at 2.5 µM: 18.7%
[1]; 5.000 umol/L substance
  activity at 5 µM: 14.4%
[2]
  health condition: health condition was markedly good

Reference: US8211945B2, “Carba-sugar amine derivative and glycolipid metabolic disorder treating agent containing the same as active ingredient” (Seikagaku Corporation, priority 2001, dated 2012)
